Measured values as given in US20260315446A1, “ANTIFUNGAL COMPOUNDS AND USES THEREOF” (priority 2023, published 2026).
Values after ≈ are worked out from the molar mass of the structure shown. Where two headings read alike, the source gives them in different places.

Experiments:
cryptococcosis = conditions: cited from earlier work
[1] = test system: IL-2 expression in primary mouse CD4+ T cells (mammalian calcineurin); experiment: In vitro immunosuppressive activity, IL-2 expression (Example 3); type: cell-based; conditions: 72 h
Method: Modifications at the C-22 position reduce inhibition of mammalian calcineurin signaling Mammalian calcineurin inhibition was then assessed and found to be reduced for these FK520 analogs. The inhibition of mammalian calcineurin was assessed by measuring the reduction of IL-2 expression from primary mouse CD4^+ T cells cultured in the presence of FK506, FK520, or an analog. Calcineurin activity is required for T cell activation and cytokine production, and IL-2 production serves as an effective measure of mammalian calcineurin activity. After culturing mouse CD4′ T cells for 72 h, IL-2 expression was analyzed by flow cytometry to evaluate the immunosuppressive activity of the analogs. […] However, compound concentrations that permit high IL-2 expression are less likely to result in cell death.
Spleen and lymph nodes from C57BL/6 mice were collected and homogenized through a 40-μm filter. Pan-CD4^+ T cells were enriched using the MagniSort Mouse CD4 T Cell Enrichment Kit (Invitrogen). Thereafter, CD4^+CD25^−CD62L^hiCD44^lo naïve CD4^+ T cells were FACS-sorted using a MoFlo Astrios cell sorter (Beckman Coulter). Naïve CD4^+ T cells were cultured in Iscove's Modified Dulbecco's Medium supplemented with 10% fetal bovine serum (FBS), penicillin (10 U/mL), streptomycin (10 μg/mL), glutamine (2 mM), gentamicin (50 μg/mL), and β-mercaptoethanol (55 μM). Cells were cultured for 72 h on anti-hamster IgG-coated plates with hamster anti-CD3s antibodies, hamster anti-CD28 antibodies, neutralizing anti-IL-4 antibodies, recombinant IL-12 (10 ng/mL), and recombinant IL-2 (50 U/mL). During this culture, cells were incubated with serially diluted drugs suspended in DMSO.

[2] = Solubility in microdilution broth assays; type: physicochemical
Method: FIG. 12: Low-solubility compounds in MIC assay. Representative image of MIC assay read by plate reader with growth indicated on a range from 0.04 to 0.1 OD, black to green coloration. Starting concentration 50 μg/mL for all drugs. (A) H99 cultured in wells, and (B) wells contain RPMI media and no fungal cells with green coloration indicative of false positive growth caused by drug insolubility.
To assess antifungal activity, the panel of compounds was tested for fungal growth inhibition using minimum inhibitory concentration (MIC) assays against C. neoformans and C. albicans and minimum effective concentration (MEC) assays against A. fumigatus. […] MEC values against A. fumigatus ranged from 0.6 to 2.5 μg/mL for 10 of the analogs tested. […] Overall, a majority of these analogs maintain relatively potent antifungal activity across species and represent an active library for further investigation.

Cryptococcus neoformans = experiment: MIC assay (Example 3); type: cell-based; conditions: Cryptococcus neoformans
Method: (§1) In vitro antifungal activity was assessed for all fungal strains in RPMI 1640 (Sigma-Aldrich R1383). MICs were measured using Clinical and Laboratory Standards Institute (CLSI) M38-A2 and M27-A3 standard in vitro antifungal susceptibility protocols. C. neoformans and A. fumigatus testing was performed at 37° C. MECs for A. fumigatus were recorded after 48 h of growth. C. albicans testing was performed at 30° C. with a uniform concentration of 2 μg/mL of fluconazole to sensitize the cells to calcineurin inhibition.
(§2) C. neoformans clinical isolate H99 and congenic-derived strain KN99α were used (see, Nielsen K, et al., 2003. Infect Immun 71:4831-4841). KN99α-derived frr1Δ deletion mutants with nourseothricin resistance markers as part of the Madhani deletion collection (NIH funding R01AI100272) were used. C. deneoformans strains used include JEC21 and derived C21F2 (CNB1-1) and C21F3 (frr1-3) strains (see, Odom A, et al., 1997. EMBO J 16:2576-2589; Moore T D, Edman J C. 1993. Mol Cell Biol 13:1962-1970; Fox D S, et al., 2001. Mol Microbiol 39:835-849). C. albicans strain SC5314 is the wild-type strain from which mutants YAG171 (rbp1/rbp1) and YAG237 (CNB1-1/CNB1) were derived (see, Cruz M C, et al., 2001. Antimicrob Agents Chemother 45:3162-3170). A. fumigatus strain akuB^Ku80 and a derived FKBP12 mutant fkbp12A were used during antifungal screening (see, Falloon K, et al., 2015. PLoS One 10:e0137869).

Candida albicans = experiment: MIC assay (Example 3); type: cell-based; conditions: Candida albicans, SC5314; MIC80, 30° C. with 2 μg/mL fluconazole; read-out: MIC against Candida albicans (SC5314)
Method: as §1, §2

[3] = test system: C. neoformans growth versus IL-2 in murine T cells; experiment: Therapeutic index score (immunosuppressive fold change to antifungal fold change relative to FK506); parameters: species or system Cryptococcus neoformans; mouse; conditions: Example 3; C. neoformans H99, FK506 = 1.0
Description: To assess the therapeutic potential for these compounds, it was important to develop an approach to score and rank them based on antifungal and immunosuppressive activities. The therapeutic index score (TIscore) is a ratio of the immunosuppressive fold change to the antifungal fold change, with all values relative to the baseline FK506 activity (FIG. 6B). A TIscore of >1.0 indicates an increase in fungal specificity because the fold change of the immunosuppressive reduction is greater than the antifungal activity reduction. As an example, JH-FK-05 is 20-fold reduced for antifungal activity but about 180-fold reduced for immunosuppression. Therefore, the TIscore of JH-FK-05 is 9.1 (TIscore=182/20). The top two analogs were JH-FK-02 (TIscore=9.7) and JH-FK-05 (TIscore=9.1). Due to the similar TIscore, JH-FK-05 was prioritized to advance to animal trials on the merit of more pronounced antifungal activity compared to JH-FK-02.
Based on the in vitro fungal and mammalian calcineurin inhibition data, the panel of FK520 analogs was assessed and ranked. Therapeutic index (TI) scores were used to quantify the effects of structural modification on the compounds (Table 8). Therapeutic index scores were calculated for each analog as the ratio of relative change in immunosuppressive and antifungal activities compared to FK506 as previously utilized (see, I-Toy M J, et at. 2022. mBio 13:e0104922). This ratio of therapeutic benefit and host toxicity, or fungal and mammalian calcineurin inhibition, allowed us to quantify and rank these analogs. […] This is the greatest TI found within the library and allowed us to identify JH-FK-08 as a lead candidate for an in vivo study. Tolerability of JH-FK-08 was assessed by monitoring animal responses to drug dosing across 14 days, including changes in weight, fur condition, and behavior. A maximum dose of 40 mg/kg was tested in once a day dosing, and due to solubility limitations, the tolerability of JH-FK-08 at 60 and 80 mg/kg total daily doses was assessed by dosing two equal doses per day (FIG. 14). […] It should be noted that analogs JH-FK-12 and JH-FK-23 are also promising candidates with respective Tis of 24.7 and 24.5.

Aspergillus fumigatus = experiment: MEC assay (Example 3); conditions: strain akuB^Ku80
[4] = MIC90, 37° C., read-out: MIC against Cryptococcus neoformans (H99)

SMILES	interaction with fluconazole in pulmonary cryptococcosis model (cryptococcosis; in vivo combination therapy with fluconazole)	fungal burden in animal model of cryptococcosis (cryptococcosis; in vivo)	IC50 [1] [nM]	solubility during microdilution broth assays [2]	MIC (Cryptococcus neoformans; Table 8, read-out: H99 MIC90) [µg/mL]	MIC (Cryptococcus neoformans; [4]) [µg/mL]	MIC (Candida albicans) [µg/mL]	Therapeutic index [3]	MEC against Aspergillus fumigatus (akuB^Ku80) (Aspergillus fumigatus) [µg/mL]
C=CC[C@@H]1/C=C(\C)C[C@H](C)C[C@H](OC)[C@H]2O[C@@](O)(C(=O)C(=O)N3CCCC[C@H]3C(=O)O[C@H](/C(C)=C/[C@@H]3CC[C@@H](O)[C@H](OC)C3)[C@H](C)[C@@H](O)CC1=NNC(C)=O)[C@H](C)C[C@@H]2OC [JH-FK-01]	benefits from this synergistic interaction	significantly reduced fungal burden	–	–	–	–	–	–	–
CC[C@@H]1/C=C(\C)C[C@H](C)C[C@H](OC)[C@H]2O[C@@](O)(C(=O)C(=O)N3CCCC[C@H]3C(=O)O[C@H](/C(C)=C/C3CC[C@@H](O)[C@H](OC)C3)[C@H](C)[C@@H](O)C/C1=N/NS(=O)(=O)c1ccc(C)cc1)[C@H](C)C[C@@H]2OC (stereo partly shown) [JH-FK-13]	–	–	> 200	exhibited solubility issues	> 50	–	–	–	–
CC[C@@H]1/C=C(\C)C[C@H](C)C[C@H](OC)[C@H]2O[C@@](O)(C(=O)C(=O)N3CCCC[C@H]3C(=O)O[C@H](/C(C)=C/C3CC[C@@H](O)[C@H](OC)C3)[C@H](C)[C@@H](O)C/C1=N/NC(=O)c1ccc3ccccc3c1)[C@H](C)C[C@@H]2OC (stereo partly shown) [JH-FK-15]	–	–	17.4	exhibited solubility issues	3.1 (≈ 3.23 µM)	3.1 (≈ 3.23 µM)	0.4 (≈ 0.417 µM)	3.1	0.3
CC[C@@H]1/C=C(\C)C[C@H](C)C[C@H](OC)[C@H]2O[C@@](O)(C(=O)C(=O)N3CCCC[C@H]3C(=O)O[C@H](/C(C)=C/C3CC[C@@H](O)[C@H](OC)C3)[C@H](C)[C@@H](O)C/C1=N/NC(=O)c1ccc(F)cc1)[C@H](C)C[C@@H]2OC (stereo partly shown) [JH-FK-17]	–	–	9.4	exhibited solubility issues	0.4 (≈ 0.431 µM)	0.4 (≈ 0.431 µM)	0.4 (≈ 0.431 µM)	13.1	1.3
